Tests used:
Format in all cases: biochemical
cathepsin K = target: T1, cathepsin K (Homo sapiens, UniProt P43235); test: Determination of cathepsin K proteolytic catalytic activity (Ki); settings: human recombinant enzyme, H-D-Ala-Leu-Lys-AMC substrate; read-out: Ki Cat. K
T1 construct: made in house; host or cells: not fixed: E. coli, Pichia or Baculovirus systems are named as options
T1 sequence (P43235 115-329): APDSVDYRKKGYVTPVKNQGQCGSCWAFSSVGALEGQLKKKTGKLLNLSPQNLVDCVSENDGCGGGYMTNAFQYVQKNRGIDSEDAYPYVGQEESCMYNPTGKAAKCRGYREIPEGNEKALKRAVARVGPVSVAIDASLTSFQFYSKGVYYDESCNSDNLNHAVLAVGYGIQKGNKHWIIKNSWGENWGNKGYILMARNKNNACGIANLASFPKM
Procedure: Convenient assays for cathepsin K are carried out using human recombinant enzyme, such as that described in PDB.
The recombinant cathepsin K can be expressed in a variety of commercially available expression systems including E. coli, Pichia and Baculovirus systems. The purified enzyme is activated by removal of the prosequence by conventional methods.
Standard assay conditions for the determination of kinetic constants used a fluorogenic peptide substrate, typically H-D-Ala-Leu-Lys-AMC, and were determined in either 100 mM Mes/Tris, pH 7.0 containing 1 mM EDTA and 10 mM 2-mercaptoethanol or 100 mM Na phosphate, imM EDTA, 0.1% PEG4000 pH 6.5 or 100 mM Na acetate, pH 5.5 containing 5 mM EDTA and 20 mM cysteine, in each case optionally with […] as stabiliser. The enzyme concentration used was 5 nM. The stock substrate solution was prepared at 10 mM in DMSO. Screens were carried out at a fixed substrate concentration of 60 μM and detailed kinetic studies with doubling dilutions of substrate from 250 μM. The total DMSO concentration in the assay was kept below 3%. All assays were conducted at ambient temperature. Product fluorescence (excitation at 390 nm, emission at 460 nm) was monitored with a Labsystems Fluoroskan Ascent fluorescent plate reader. Product progress curves were generated over 15 minutes following generation of AMC product.
(§1) Potential inhibitors are screened using the above assay with variable concentrations of test compound. Reactions were initiated by addition of enzyme to buffered solutions of substrate and inhibitor. Ki values were calculated according to equation 1.
(§2) [formula] where v0 is the velocity of the reaction, V is the maximal velocity, S is the concentration of substrate with Michaelis constant of KM, and I is the concentration of inhibitor.

human cathepsin S = target: T2, human cathepsin S (Homo sapiens, UniProt P25774); test: Cathepsin S Ki determination; settings: baculovirus-expressed human cathepsin S, boc-Val-Leu-Lys-AMC substrate, pH 6.5; read-out: Ki Cat. S
T2 construct: made in house; host or cells: baculovirus expression system
T2 sequence (P25774 115-331): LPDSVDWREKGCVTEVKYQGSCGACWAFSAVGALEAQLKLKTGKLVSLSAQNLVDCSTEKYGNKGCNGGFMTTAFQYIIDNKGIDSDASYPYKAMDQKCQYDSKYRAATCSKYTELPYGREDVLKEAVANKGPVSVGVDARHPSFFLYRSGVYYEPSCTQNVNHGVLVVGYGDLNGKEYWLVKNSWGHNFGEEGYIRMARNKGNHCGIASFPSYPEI
Procedure: The assay uses baculovirus-expressed human cathepsin S and the boc-Val-Leu-Lys-AMC fluorescent substrate available from Bachem in a 384 well plate format, in which 7 test compounds can be tested in parallel with a positive control comprising a known cathepsin S inhibitor comparator.
280 μL/well of 12.5% DMSO are added to rows B-H of two columns of a 96 deep well polypropylene plate. 70 μL/well of substrate is added to row A. 2×250 μL/well of assay buffer (100 mM Na phosphate, 100 mM NaCl, pH 6.5) is added to row A, mixed, and double diluted down the plate to row H.
100 μL/well of assay buffer is added to columns 2-5 and 7-12 of 4 rows of a 96 well V bottom polypropylene plate. 200 μL/well of assay buffer is added to columns 1 and 6.
The first test compound prepared in DMSO is added to column 1 of the top row, typically at a volume to provide between 10 and 30 times the initially determined rough K1. The rough K, is calculated from a preliminary run in which 10 μL/well of 1 mM boc-VLK-AMC (1/10 dilution of 10 mM stock in DMSO diluted into assay buffer) is dispensed to rows B to H and 20 μl/well to row A of a 96 well Microfluor™ plate. 2 μl of each 10 mM test compound is added to a separate well on row A, columns 1-10. Add 90 μl assay buffer containing 1 mM DTT and 2 nM cathepsin S to each well of rows B-H and 180 μl to row A. Mix row A using a multichannel pipette and double dilute to row G. Mix row H and read in the fluorescent spectrophotometer.
The second test compound is added to column 6 of the top row, the third to column 1 of the second row etc. Add 1 μL of comparator to column 6 of the bottom row. Mix column 1 and double dilute to column 5. Mix column 6 and double dilute to column 10.
Using an 8-channel multistepping pipette set to 5×10 μL, distribute 10 μL/well of substrate to the 384 well assay plate. Distribute the first column of the substrate dilution plate to all columns of the assay plate starting at row A. The tip spacing of the multichannel pipette will correctly skip alternate rows. Distribute the second column to all columns starting at row B.
Using a 12-channel multistepping pipette set to 4×10 μL, distribute 10 μL/well of inhibitor to the 384 well assay plate. Distribute the first row of the inhibitor dilution plate to alternate rows of the assay plate starting at A1. The tip spacing of the multichannel pipette will correctly skip alternate columns. Similarly, distribute the second, third and fourth rows to alternate rows and columns starting at A2, B1 and B2 respectively.
Mix 20 mL assay buffer and 20 μL 1M DTT. Add sufficient cathepsin S to give 2 nM final concentration.
Using the a distributor such as a Multidrop 384, add 30 μL/well to all wells of the assay plate and read in fluorescent spectrophotometer such as an Ascent.
Fluorescent readings, (excitation and emission wavelengths 390 nm and 460 nm respectively, set using bandpass filters) reflecting the extent of enzyme cleavage of the fluorescent substrate, […] the inhibitor, are linear rate fitted for each well.
Fitted rates for all wells for each inhibitor are fitted to the competitive inhibition equation using SigmaPlot 2000 to determine V, Km and Ki values.
as §1, §2

human cathepsin L = human cathepsin L (Homo sapiens, UniProt P07711); test: Cathepsin L Ki; settings: H-D-Val-Leu-Lys-AMC substrate, pH 5.5, read-out: Ki Cat. L
human cathepsin L, sequence (P07711 114-333): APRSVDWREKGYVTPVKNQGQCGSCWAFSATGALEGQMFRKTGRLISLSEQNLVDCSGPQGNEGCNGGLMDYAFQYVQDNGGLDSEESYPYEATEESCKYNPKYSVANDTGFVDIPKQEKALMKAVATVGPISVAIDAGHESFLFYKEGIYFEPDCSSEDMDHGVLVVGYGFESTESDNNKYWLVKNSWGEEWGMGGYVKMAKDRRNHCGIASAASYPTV
Procedure: The procedure above with the following amendments is used for the determination of Ki for cathepsin L.
The enzyme is commercially available human cathepsin L (for example Calbiochem). The substrate is H-D-Val-Leu-Lys-AMC available from Bahcem. The assay buffer is 100 mM sodium acetate 1 mM EDTA, pH5.5) The DMSO stock (10 mM in 100% DMSO) is diluted to 10% in assay buffer. Enzyme is prepared at 5 nM concentration in assay buffer plus 1 mM dithiothreitol just before use. 2 μL of 10 mM inhibitor made up in 100% DMSO is dispensed into row A. 10 μL of 50 μM substrate (=1/200 dilution of 10 mM stock in DMSO, diluted in assay buffer).
as §1, §2

Ki (cathepsin K) [nM]	Ki (human cathepsin S) [nM]	Ki (human cathepsin L) [nM]	Structure (SMILES)
610	1	1100	Cn1cnc(NC(=O)C(=O)C2(NC(=O)[C@H](CC3(C)CCCC3)NC(=O)OC(C)(C)C)CCC2)c1 [Example 11]
95000	30	> 200000	Cc1csc(NC(=O)C(=O)C2(NC(=O)[C@H](CC3(C)CCCC3)NC(=O)OC(C)(C)C)CCC2)n1 [Example 20]
3800	14	25000	CC(C)(C)OC(=O)N[C@@H](CC1(F)CCCC1)C(=O)NC1(C(=O)C(=O)NC2CC2)CC(F)C1 (stereo partly drawn) [Example 22]
410	1.8	1200	CC(C)OC(=O)NC(CC1(F)CCCC1)C(=O)NC1(C(=O)C(=O)Nc2ccn(C)n2)CC(F)C1 (stereo not drawn) [Example 31]
440	1.8	990	CC(CF)OC(=O)NC(CC1(F)CCCC1)C(=O)NC1(C(=O)C(=O)Nc2ccn(C)n2)CCC1 (stereo not drawn) [Example 56, {2-(1-Fluoro-cyclopentyl)-1-[1-(1-methyl-1H-pyrazol-3-ylaminooxalyl)-cyclobutylcarbamoyl]-ethyl}-carbamic acid 2-fluoro-1-methyl-ethyl ester]
1400	0.7	2100	CCOC(=O)NC(CC1(C)CCCC1)C(=O)NC1(C(=O)C(=O)Nc2ccn(C)n2)CC(OC)C1 (stereo not drawn) [Example 70]
4400	7.8	10000	CC1(C[C@H](NC(=O)OC(C)(C)C)C(=O)NC2(C(=O)C(=O)NC3CC3)CCC2)CCCC1 [Example 24]
98	0.4	270	Cn1ccc(NC(=O)C(=O)C2(NC(=O)[C@H](CC3(F)CCCC3)NC(=O)OC(C)(C)C)CCC2)n1 [Example 52]
340	2.2	2100	Cn1ccc(NC(=O)C(=O)C2(NC(=O)[C@H](CC3(F)CCCC3)NC(=O)OC3COC3)CCC2)n1 [Example 59, {2-(1-Fluoro-cyclopentyl)-1-[1-(1-methyl-1H-pyrazol-3-ylaminooxalyl)-cyclobutylcarbamoyl]-ethyl}-carbamic acid oxetan-3-yl ester]
250	0.8	1100	COC1CC(NC(=O)[C@H](CC2(F)CCCC2)NC(=O)OC(C)(C)C)(C(=O)C(=O)Nc2ccn(C)n2)C1 (single isomer, unassigned) [Example 73, {2-(1-Fluoro-cyclopentyl)-1-[3-methoxy-1-(1-methyl-1H-pyrazol-3-ylaminooxalyl)-cyclobutylcarbamoyl]-ethyl}-carbamic acid tert-butyl ester]
170	0.55	360	Cn1ccc(NC(=O)C(=O)C2(NC(=O)[C@H](CC3(F)CCCC3)NC(=O)OC(C)(C)C)CC(F)(F)C2)n1 [Example 10]
1100	3.6	4800	COC(=O)N[C@@H](CC1(C)CCCC1)C(=O)N[C@]1(C(=O)C(=O)Nc2ccn(C)n2)C[C@@H](F)C1 [Example 1]
290	0.79	720	CC(C)(C)OC(=O)N[C@@H](CC1(F)CCCC1)C(=O)NC1(C(=O)C(=O)Nc2cc[nH]n2)CCC1 [Example 57, {2-(1-Fluoro-cyclopentyl)-1-[1-(1H-pyrazol-3-ylaminooxalyl)-cyclobutylcarbamoyl]-ethyl}-carbamic acid tert-butyl ester]
1100	6	850	Cn1ccc(NC(=O)C(=O)C2(NC(=O)C(CC3CCCC3)NC(=O)OC(C)(C)C)CC(F)C2)n1 (stereo not drawn) [Example 45]
240	0.65	660	COC1CC(NC(=O)[C@H](CC2(F)CCCC2)NC(=O)OC(C)(C)C)(C(=O)C(=O)Nc2ccn(C)n2)C1 (stereo partly drawn) [Example 49]
430	11	3300	CCOC(=O)NC(CC(C)(C)C)C(=O)NC1(C(=O)C(=O)Nc2ccn(C)n2)CC(F)C1 (stereo not drawn) [Example 4]
640	1.1	2400	CCOC(=O)NC(CC1(F)CCCC1)C(=O)NC1(C(=O)C(=O)Nc2ccn(C)n2)CC(OC)C1 (stereo not drawn) [Example 68]
150	4.7	330	Cn1ccc(NC(=O)C(=O)C2(NC(=O)C(CC3(C)CCC3)NC(=O)OC(C)(C)C)CC(F)C2)n1 (stereo not drawn) [Example 19]
1400	22	4900	CCOC(=O)N[C@@H](CC1(F)CCCC1)C(=O)NC1(C(=O)C(=O)NCCCN2CCN(C)CC2)CCC1 [Example 63]
100	0.65	560	[2H]C([2H])([2H])n1ccc(NC(=O)C(=O)C2(NC(=O)C(CC3(F)CCCC3)NC(=O)OC(C)(C)C)CC(F)C2)n1 (stereo not drawn) [Example 50]
1200	1	3300	CCOC(=O)NC(CC1(C)CCCC1)C(=O)NC1(C(=O)C(=O)Nc2ccn(C)n2)CC(F)C1 (stereo not drawn) [Example 8]
